Measurements taken from patent US20230277612A1, “SAPONIN DERIVATIVES FOR USE IN MEDICINE” (priority 2020, published 2023).
Like-named read-outs stand apart in the source and are kept apart here.

How the values were obtained:
[1] = tested on: EGFR expressing cells (HeLa and A431); conditions: summary in description
A431 cells = test: cells; format: cell-based
Procedure: (§1) (FIGS. 66a and 66B). Next toxicity was determined, for this the modified saponins were titrated on HeLa and A431 cells. […] Next toxicity was determined, for this the modified saponins were titrated on HeLa and A431 cells.

HeLa cells = test: cells; format: cell-based
Procedure: as §1

[2] = tested on: EGFR expressing cells (A431); format: cell-based
[3] = tested on: EGFR expressing cells (HeLa); format: cell-based
[4] = Critical micellar concentration (CMC) by ANS fluorescence; format: physicochemical; conditions: Table A7; determined in PBS
Procedure: The critical micellar concentration (CMC) of saponins derived from Saponaria officinalis (SO) (Table A7) and derived from Quillaja saponaria (QS) (Table A8, and Table A9) was determined by the method of DeVendittis et al. (A fluorimetric method for the estimation of the critical micelle concentration of surfactants, Analytical Biochemistry, Volume 115, Issue 2, August 1981, Pages 278-286) as follows:
(§2) The emission spectrum of 8-Anilinonaphthalene-1-sulfonic acid (ANS) in either purified water (MQ) or PBS (Dulbecco's PBS+/+) was determined at dry weight concentrations of saponins ranging from 1 to 1400 pM to cover the range below and above the CMC. Above the CMC, the fluorescence yield of ANS increases and the wavelength of maximum emission decreases due to portioning of the fluorescent dye into micelles. Fluorescence yields were recorded on a Fluoroskan Ascent FL (Thermo Scientific) at an excitation wavelength of 355 nm, and an emission wavelength of 460 nm. 6 μg at a concentration of 75.86 pM of ANS were used per sample and measurement.
The critical micellar concentration (CMC) of saponins was determined by the method of DeVendittis et al. (A fluorimetric method for the estimation of the critical micelle concentration of surfactants, Analytical Biochemistry, Volume 115, Issue 2, August 1981, Pages 278-286) as follows:
as §2, with “μM” for “pM”

human red blood cells = test: cells; format: cell-based
Procedure: Red blood cells (RBCs) were isolated from a buffy coat using a Ficoll gradient. The obtained RBC pellet (˜4-5 ml) was washed 2× with 50 ml DPBS (without Ca^2+/Mg^2+, PAN-Biotech GmbH). Cells were pelleted by centrifugation for 10 min, 800×g at RT. RBC were counted and resuspended at 500.000.000 c/ml in DPBS (without Ca^2+/Mg^2+), based on total cell count.
(§3) Saponin dilutions were prepared in DPBS (with Ca^2+/Mg^2+, PAN-Biotech GmbH), at 1.11× final strength. For positive lysis control a 0.02% Triton-X100 solution was prepared in DPBS^+/+. Of all compound solutions 135 μl was dispensed/well in a 96 well V-bottom plate. To this 15 μl RBC suspension was added and mixed shortly (10 sec-600 rpm). The plate was incubated 30 min at RT, with gentle agitation. Afterwards the plate was spun for 10 min at 800×g to pellet the RBC and 100-120 μl supernatant was transferred to a standard 96 wp (96 well-plate).
as §3, with “DPBS+/+.” for “DPBS^+/+.”

[5] = Table A6, saponin alone, read-out: IC50 nM (Toxicity)
[6] = Table A5, saponin alone, read-out: IC50 nM (Toxicity)
[7] = A431, + 5 pM EGFdianthin, read-out: IC50 endosomal escape enhancing activity
[8] = HeLa, + 5 pM EGFdianthin, read-out: IC50 endosomal escape enhancing activity
[9] = Table A5, read-out: IC50 nM (hemolysis)
[10] = Table A6, read-out: IC50 nM (hemolysis)
[11] = read-out: IC50 hemolytic activity
[12] = Table A6, A431 cells, saponin titrated + 5 pM EGFdianthin, read-out: IC50 nM (Activity)
[13] = Table A5, HeLa cells, saponin titrated + 5 pM EGFdianthin, read-out: IC50 nM (Activity)
[14] = saponin alone, read-out: IC50 toxicity

| SMILES | Endosomal escape enhancing activity (enhancement of cytotoxicity of effector conjugate) [1] | IC50 (A431 cells; [5]) [nM] | IC50 (HeLa cells; [6]) [nM] | IC50 [2, 7] [nM] | IC50 [3, 8] [nM] | CMC [4] [µM] | IC50 (human red blood cells; [9]) [nM] | IC50 (human red blood cells; [10]) [nM] | IC50 (human red blood cells; [11]) [nM] | IC50 [2, 12] [nM] | IC50 [3, 13] [nM] | IC50 (A431 cells; [14]) [nM] | IC50 (HeLa cells; [14]) [nM] |
| --- | --- | --- | --- | --- | --- | --- | --- | --- | --- | --- | --- | --- | --- |
| CC(=O)OC1C(C)OC(OC2C(C)OC(OC(=O)[C@]34CCC(C)(C)CC3C3=CCC5[C@@]6(C)CC[C@H](OC7OC(C(=O)NC(C)(CO)CO)C(O)C(OC8OCC(O)C(O)C8O)C7OC7OC(CO)C(O)C(O)C7O)[C@@](C)(C=O)C6CC[C@@]5(C)[C@]3(C)C[C@H]4O)C(OC3OC(C)C(OC4OCC(O)C(OC5OC(CO)C(O)C(O)C5O)C4O)C(O)C3O)C2O)C(O)C1OC1OCC(O)C(O)C1O (stereo partly drawn) [Molecule 3A] | display activity | – | – | – | – | – | – | – | – | – | – | – | – |
| CC(=O)OC1C(C)OC(OC2C(C)OC(OC(=O)[C@]34CCC(C)(C)CC3C3=CCC5[C@@]6(C)CC[C@H](OC7OC(C(=O)NC(C)(CO)CO)C(O)C(OC8OCC(O)C(O)C8O)C7OC7OC(CO)C(O)C(O)C7O)[C@@](C)(CO)C6CC[C@@]5(C)[C@]3(C)C[C@H]4O)C(OC3OC(C)C(OC4OCC(O)C(OC5OC(CO)C(O)C(O)C5O)C4O)C(O)C3O)C2O)C(O)C1OC1OCC(O)C(O)C1O (stereo partly drawn) [Molecule 9] | have the capacity to enhance the cytotoxic effect | – | – | – | – | – | – | – | – | – | – | – | – |
| CC1OC(OC2C(C)OC(OC(=O)[C@]34CCC(C)(C)CC3C3=CCC5[C@@]6(C)CC[C@H](OC7OC(C(=O)NC(C)(CO)CO)C(O)C(OC8OCC(O)C(O)C8O)C7OC7OC(CO)C(O)C(O)C7O)[C@@](C)(C=O)C6CC[C@@]5(C)[C@]3(C)C[C@H]4O)C(OC3OC(C)C(OC4OCC(O)C(OC5OC(CO)C(O)C(O)C5O)C4O)C(O)C3O)C2O)C(O)C(OC2OCC(O)C(O)C2O)C1O (stereo partly drawn) [Molecule 11] | display activity | – | – | – | – | – | – | – | – | – | – | – | – |
| CC1OC(OC2C(C)OC(OC(=O)[C@]34CCC(C)(C)CC3C3=CCC5[C@@]6(C)CC[C@H](OC7OC(C(=O)NC(C)(CO)CO)C(O)C(OC8OCC(O)C(O)C8O)C7OC7OC(CO)C(O)C(O)C7O)[C@@](C)(C=O)C6CC[C@@]5(C)[C@]3(C)C[C@H]4O)C(OC3OC(C)C(OC4OCC(O)C(OC5OC(CO)C(O)C(O)C5O)C4O)C(O)C3O)C2O)C(O)C(OC2OCC(O)C(O)C2O)C1O (stereo partly drawn) [SO1861-(Ac—OH)-(Glu-AMPD)] | – | > 100000 | > 100000 | 3000 | 3000 | 90 ± 10 | 140000 | 140000 | 140000 | – | – | – | – |
| CC1OC(OC2C(C)OC(OC(=O)C34CCC(C)(C)CC3C3=CCC5C6(C)CCC(OC7OC(C(=O)O)C(O)C(OC8OCC(O)C(O)C8O)C7OC7OC(CO)C(O)C(O)C7O)C(C)(C=NNC(=O)CCCCCN7C(=O)C=CC7=O)C6CCC5(C)C3(C)CC4O)C(OC3OC(C)C(OC4OCC(O)C(OC5OC(CO)C(O)C(O)C5O)C4O)C(O)C3O)C2O)C(O)C(OC2OCC(O)C(O)C2O)C1O (stereo not drawn) [SO1861-(Ald-EMCH)-(Ac—OH)] | – | > 100000 | > 100000 | 10000 | 8000 | >300 | > 1e+06 | > 1e+06 | – | – | – | – | – |
| CC1OC(OC2C(C)OC(OC(=O)[C@]34CCC(C)(C)CC3C3=CCC5[C@@]6(C)CC[C@H](OC7OC(C(=O)NC(C)(CO)CO)C(O)C(OC8OCC(O)C(O)C8O)C7OC7OC(CO)C(O)C(O)C7O)[C@@](C)(CO)C6CC[C@@]5(C)[C@]3(C)C[C@H]4O)C(OC3OC(C)C(OC4OCC(O)C(OC5OC(CO)C(O)C(O)C5O)C4O)C(O)C3O)C2O)C(O)C(OC2OCC(O)C(O)C2O)C1O (stereo partly drawn) [SO1861-(Ald-OH)-(Ac—OH)-(Glu-AMPD)] | – | > 100000 | > 100000 | – | – | 120 ± 12 | > 1e+06 | > 1e+06 | – | > 20000 | > 20000 | – | – |
| CC1OC(OC2C(C)OC(OC(=O)[C@]34CCC(C)(C)CC3C3=CCC5[C@@]6(C)CC[C@H](OC7OC(C(=O)NCCN8C(=O)C=CC8=O)C(O)C(OC8OCC(O)C(O)C8O)C7OC7OC(CO)C(O)C(O)C7O)[C@@](C)(C=O)C6CC[C@@]5(C)[C@]3(C)C[C@H]4O)C(OC3OC(C)C(OC4OCC(O)C(OC5OC(CO)C(O)C(O)C5O)C4O)C(O)C3O)C2O)C(O)C(OC2OCC(O)C(O)C2O)C1O (stereo partly drawn) [SO1861-(Glu-AEM)-(Ac—OH)] | – | > 100000 | > 100000 | 4000 | 8000 | 90 ± 10 | 100000 | 100000 | 100000 | – | – | – | – |
| CC1OC(OC2C(C)OC(OC(=O)[C@]34CCC(C)(C)CC3C3=CCC5[C@@]6(C)CC[C@H](OC7OC(C(=O)NCCN8C(=O)C=CC8=O)C(O)C(OC8OCC(O)C(O)C8O)C7OC7OC(CO)C(O)C(O)C7O)[C@@](C)(CO)C6CC[C@@]5(C)[C@]3(C)C[C@H]4O)C(OC3OC(C)C(OC4OCC(O)C(OC5OC(CO)C(O)C(O)C5O)C4O)C(O)C3O)C2O)C(O)C(OC2OCC(O)C(O)C2O)C1O (stereo partly drawn) [SO1861-(Glu-AEM)-(Ald-OH)-(Ac—OH)] | – | > 100000 | > 100000 | – | – | >150 | > 1e+06 | > 1e+06 | – | > 20000 | > 20000 | – | – |
| CC(=O)OC1C(C)OC(OC2C(C)OC(OC(=O)[C@]34CCC(C)(C)CC3C3=CCC5[C@@]6(C)CC[C@H](OC7OC(C(=O)NCCN8C(=O)C=CC8=O)C(O)C(OC8OCC(O)C(O)C8O)C7OC7OC(CO)C(O)C(O)C7O)[C@@](C)(CO)C6CC[C@@]5(C)[C@]3(C)C[C@H]4O)C(OC3OC(C)C(OC4OCC(O)C(OC5OC(CO)C(O)C(O)C5O)C4O)C(O)C3O)C2O)C(O)C1OC1OCC(O)C(O)C1O (stereo partly drawn) [SO1861-(Glu-AEM)-(Ald-OH)] | – | > 100000 | > 100000 | 20000 | 40000 | 90 ± 10 | > 1e+06 | > 1e+06 | – | – | – | – | – |
| CC1OC(OC2C(C)OC(OC(=O)[C@]34CCC(C)(C)CC3C3=CCC5[C@@]6(C)CC[C@H](OC7OC(C(=O)O)C(O)C(OC8OCC(O)C(O)C8O)C7OC7OC(CO)C(O)C(O)C7O)[C@@](C)(C=O)C6CC[C@@]5(C)[C@]3(C)C[C@H]4O)C(OC3OC(C)C(OC4OCC(O)C(OC5OC(CO)C(O)C(O)C5O)C4O)C(O)C3O)C2O)C(O)C(OC2OCC(O)C(O)C2O)C1O (stereo partly drawn) [SO1861-Ac—OH] | – | – | – | 800 | 1000 | 350 ± 35 | – | – | – | – | – | 2000 | 10000 |
| CC(=O)OC1C(C)OC(OC2C(C)OC(OC(=O)[C@]34CCC(C)(C)CC3C3=CCC5[C@@]6(C)CC[C@H](OC7OC(C(=O)O)C(O)C(OC8OCC(O)C(O)C8O)C7OC7OC(CO)C(O)C(O)C7O)[C@@](C)(CO)C6CC[C@@]5(C)[C@]3(C)C[C@H]4O)C(OC3OC(C)C(OC4OCC(O)C(OC5OC(CO)C(O)C(O)C5O)C4O)C(O)C3O)C2O)C(O)C1OC1OCC(O)C(O)C1O (stereo partly drawn) [SO1861-Ald-OH] | – | – | > 100000 | 600 | 600 | 135 ± 14 | 30000 | 30000 | 30000 | – | – | 7000 | – |
